# Biological target: T1, mPGES-1 (Homo sapiens, UniProt O14684)
# T1 construct: made in house; host or cells: E. coli
# T1 sequence (O14684 1-152): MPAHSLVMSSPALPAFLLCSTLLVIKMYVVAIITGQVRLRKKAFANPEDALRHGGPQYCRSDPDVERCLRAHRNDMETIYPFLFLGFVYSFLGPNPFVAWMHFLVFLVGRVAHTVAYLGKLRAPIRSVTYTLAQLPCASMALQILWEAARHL
# Assay: mPGES-1 biological test: conversion of PGH2 to PGE2, PGE2 quantified by HPLC
# Assay type: biochemical
# Conditions: mPGES-1 expressed in E. coli, membrane fraction; 25 min preincubation with inhibitor, 60 s with PGH2, room temperature; read-out: IC50 (inhibition of mPGES-1)
# Method: In the assay mPGES-1 catalyses the reaction where the substrate PGH2 is converted to PGE2. mPGES-1 is expressed in E. coli and the membrane fraction is dissolved in 20 mM NaPi-buffer pH 8.0 and stored at −80° C. In the assay mPGES-1 is dissolved in 0.1M KPi-buffer pH 7.35 with 2.5 mM glutathione. The stop solution consists of H2O/MeCN (7/3), containing FeCl2 (25 mM) and HCl (0.15 M). The assay is performed at room temperature in 96-well plates. Analysis of the amount of PGE2 is performed with reversed phase HPLC (Waters 2795 equipped with a 3.9×150 mm C18 column). The mobile phase consists of H2O/MeCN (7/3), containing TFA (0.056%), and absorbance is measured at 195 nm with a Waters 2487 UV-detector.
# The following is added chronologically to each well: • 1. 100 μL mPGES-1 in KPi-buffer with glutathione. Total protein concentration: 0.02 mg/mL. • 2. 1 μL inhibitor in DMSO. Incubation of the plate at room temperature for 25 minutes. • 3. 4 μL of a 0.25 mM PGH2 solution. Incubation of the plate at room temperature for 60 seconds. • 4. […] stop solution. • 180 μL per sample is analyzed with HPLC.
row,SMILES,IC50 [µM]
1,"CC(C)Oc1ccc(-n2c(C(=O)O)c(CCC(=O)O)c3cc(-c4ccc(C(F)(F)F)cn4)ccc32)cc1 [Example 88, 3-(2-Carboxyethyl)-1-(4-isopropoxyphenyl)-5-(5-trifluoromethylpyridin-2-yl)indole-2-carboxylic acid]",5.4
2,"CC(C)Oc1ccc(-n2c(C(=O)O)c(C(=O)O)c3cc(Oc4ccc(C(F)(F)F)cn4)ccc32)cc1 [Example 19, 1-(4-Isopropoxyphenyl)-5-(5-trifluoromethylpyridin-2-yloxy)indole-2,3-dicarboxylic acid]",4.3

# The remaining compounds from weak to strong by IC50, led by results:
row,IC50 [µM],SMILES
1,6.9,"CC(=O)NC(Cc1c(C(=O)O)n(-c2ccc(OC3CCCC3)cc2)c2ccc(-c3ccc(C(F)(F)F)cc3)cc12)C(=O)O (centres unmarked) [Example 85, 3-(2-Acetylamino-2-carboxyethyl)-1-(4-cyclopentyloxyphenyl)-5-(4-trifluoromethylphenyl)indole-2-carboxylic acid]"
2,2.3,"CC(C)Oc1ccc(-n2c(C(=O)O)c(CN3CCCC3C(=O)O)c3cc(-c4ccc(C(C)(C)C)cc4)ccc32)cc1 (centres unmarked) [Example 87, 1-[5-(4-tert-Butylphenyl)-2-carboxy-1-(4-isopropoxyphenyl)indol-3-ylmethyl]-2-carboxypyrrolidinium chloride]"
3,1.9,"CCOC(=O)c1c(C(=O)O)c2cc(-c3ccc(C(F)(F)F)cc3)ccc2n1-c1ccc(OC2CCCC2)cc1 [Example 67, 1-(4-Cyclopentyloxyphenyl)-5-(4-trifluoromethylphenyl)indole-2,3-dicarboxylic acid 2-ethyl ester]"
